Patent publication US11166924B2, “N-methyl-d-aspartate receptor allosteric modulators and methods for their use” (Qingdao Primedicine Pharmaceutical Company, Ltd., priority 2016, dated 2021)

Assays:
GluN1/GluN2A NMDARs = target: T1, GluN1/GluN2A NMDARs (Rattus norvegicus, UniProt P35439+Q00959); assay: Whole-cell patch clamp recordings in HEK293 cells transfected with GluN1/GluN2A; assay type: cell-based; settings: for activation at 50 µM / activation at 100 µM: HEK293, Table 2, read-out: Normalized Potentiation GluN1/GluN2A; for activation at 50 µM: 50 μM (footnote *); for Normalized Potentiation: positive modulation of GluN1/GluN2A NMDARs, concentration not given
T1 construct: expressed in transfected cells; host or cells: HEK293
T1 sequence (Q00959 23-1464, other chains not shown): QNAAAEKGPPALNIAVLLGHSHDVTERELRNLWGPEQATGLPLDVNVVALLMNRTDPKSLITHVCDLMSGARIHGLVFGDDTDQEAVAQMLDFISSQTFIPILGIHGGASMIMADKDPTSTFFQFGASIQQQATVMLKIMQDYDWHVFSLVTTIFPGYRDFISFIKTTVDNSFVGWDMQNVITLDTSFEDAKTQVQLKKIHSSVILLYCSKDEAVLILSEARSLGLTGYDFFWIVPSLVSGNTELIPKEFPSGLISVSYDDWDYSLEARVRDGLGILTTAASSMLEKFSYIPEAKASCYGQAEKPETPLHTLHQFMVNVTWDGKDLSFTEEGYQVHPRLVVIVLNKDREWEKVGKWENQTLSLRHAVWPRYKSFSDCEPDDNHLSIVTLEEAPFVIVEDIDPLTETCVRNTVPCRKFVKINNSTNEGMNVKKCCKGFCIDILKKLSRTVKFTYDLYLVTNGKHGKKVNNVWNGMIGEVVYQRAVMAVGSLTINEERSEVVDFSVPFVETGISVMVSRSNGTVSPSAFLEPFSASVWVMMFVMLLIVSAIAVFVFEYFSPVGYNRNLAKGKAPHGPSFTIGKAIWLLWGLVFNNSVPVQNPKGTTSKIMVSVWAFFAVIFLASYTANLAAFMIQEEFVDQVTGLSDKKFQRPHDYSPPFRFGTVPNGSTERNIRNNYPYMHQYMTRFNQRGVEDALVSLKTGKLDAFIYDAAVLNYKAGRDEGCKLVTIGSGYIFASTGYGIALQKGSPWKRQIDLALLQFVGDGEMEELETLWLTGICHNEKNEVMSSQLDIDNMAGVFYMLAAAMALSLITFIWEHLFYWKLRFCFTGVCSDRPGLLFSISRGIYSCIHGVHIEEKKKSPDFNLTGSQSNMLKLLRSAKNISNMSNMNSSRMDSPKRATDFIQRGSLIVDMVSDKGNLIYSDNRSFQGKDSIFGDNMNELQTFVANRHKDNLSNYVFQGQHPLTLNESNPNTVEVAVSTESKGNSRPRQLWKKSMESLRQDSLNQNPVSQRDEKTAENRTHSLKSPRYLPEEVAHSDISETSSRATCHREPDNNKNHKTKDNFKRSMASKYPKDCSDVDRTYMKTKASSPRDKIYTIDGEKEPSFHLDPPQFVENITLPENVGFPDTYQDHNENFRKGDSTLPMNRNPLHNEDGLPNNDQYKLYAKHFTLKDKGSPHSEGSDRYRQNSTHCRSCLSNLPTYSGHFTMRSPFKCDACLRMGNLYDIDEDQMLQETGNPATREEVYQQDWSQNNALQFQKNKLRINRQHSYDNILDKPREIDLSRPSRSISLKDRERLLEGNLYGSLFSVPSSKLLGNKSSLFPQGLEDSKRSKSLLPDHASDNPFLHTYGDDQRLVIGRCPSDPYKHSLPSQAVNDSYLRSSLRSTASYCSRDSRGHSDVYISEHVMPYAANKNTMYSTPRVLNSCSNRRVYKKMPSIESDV
Method: Cells were transfected with a combination of pcDNA3-CMV expression vectors, each of which expressed one of the rat recombinant (GluN2AWT, GluN1WT, GluN2BWT) subunits. The sequences of all plasmids were confirmed by automated DNA sequencing. Human Embryonic Kidney 293 (HEK293 cells) were cultured in Dulbecco's Modified Eagle's Medium (DMEM) (Invitrogen) supplemented with 10% fetal bovine serum (FBS). When HEK293 cells achieved 90% confluence, plasmids of either GluN1 & GluN2A or GluN1 & GluN2B were co-transfected into the cells using Lipofectamine 2000 (Invitrogen, 11668019) according to manufacturer's instructions. HEK293 cells were then maintained in the 37° C. incubator with […] and 5% CO2 for 48 hrs before being used in experiments. The transfection ratios for the NMDAR subunit combinations were all 1:1 (GluN1/GluN2A or GluN1/GluN2B).
Whole cell patch-clamp recordings were performed under voltage-clamp mode using an Axopatch 200B or 1D patch-clamp amplifier (Molecular Devices). Whole-cell currents were recorded at a holding potential of −60 mV unless indicated elsewhere, and signals were filtered at 2 kHz, digitized at 10 kHz (Digidata 1322A). Recording pipettes (3-5 MΩ) were filled with intracellular solution containing (mM): CsCl 140, HEPES 10, Mg-ATP 4, QX-314 5, pH 7.20; osmolarity, 290-295 mOsm. BAPTA (10 mM) was added in the intracellular solution (unless otherwise specified). The coverslips were continuously superfused with extracellular solution containing (mM): NaCl 140, KCl 5.4, HEPES 10, CaCl2 1.3, glucose 20, pH 7.4; osmolarity, 305-315 mOsm. NMDA-induced currents were applied by NMDA through perfusion fast-step (Warner Instruments). With perfusion fast-step system, NMDA application was achieved by using a two-square barrel glass tubing and depending on the age of the cultured neurons, CNQX (10 μM), TTX (0.5 μM) or BIC (10 μM) were added in the extracellular solution to minimize the activation of ionotropic glutamate receptors and voltage-gated sodium channels, respectively. All experiments were performed at room temperature. Recordings from at least six HEK293 cells/neurons were performed for all active compounds. Data were pooled among HEK293 cells or primary neurons and composite dose-response data were fitted by the equation Percentage Response=100×Relative Efficacy/[1+(EC50/Concentration)nH], where EC50 is the concentration of agonist that produces a half-maximal response, relative efficacy is the response at maximally effective concentration relative to the maximal response of glutamate, and nH is the Hill slope.
GluN1/GluN2A NMDAR subtypes are an attractive target for positive allosteric modulation. The present inventors employed in silico computational drug discovery methods to conduct a virtual screen of purchasable lead-like compounds from the ZINC database (Irwin, J., et al. Abstr Pap Am Chem Soc (2005) 230:U1009) and some synthetic compounds to identify potential GluN1/GluN2A-NMDAR modulators. The in silico methods included large-scale docking against the interstice interface of the GluN1/GluN2A heterodimer and consensus scoring to select compounds for empirical testing. Candidate compounds were further screened by using GluN1/GluN2A transiently transfected in human embryonic kidney (HEK293) cells and tested by whole-cell patch clamp recordings.
The inventors used transiently transfected HEK293 cells expressing either GluN1/GluN2A or GluN1/GluN2B NMDARs and tested by whole-cell voltage patch clamp recordings to see whether selected compounds were controlling the subtype selectivity profile of the drugs.
Whole-cell patch clamp recordings were performed to measure glutamate evoked currents with chloride-based pipette solutions at a holding potential of −60 mV.

GluN1/GluN2B NMDARs = target: T2, GluN1/GluN2B NMDARs (Rattus norvegicus, UniProt P35439+Q00960); assay: Whole-cell patch clamp recordings in HEK293 cells transfected with GluN1/GluN2B; assay type: cell-based; settings: for activation at 50 µM: 50 μM (footnote *)
T2 construct: expressed in transfected cells; host or cells: HEK293
T2 sequence (Q00960 27-1482, other chains not shown): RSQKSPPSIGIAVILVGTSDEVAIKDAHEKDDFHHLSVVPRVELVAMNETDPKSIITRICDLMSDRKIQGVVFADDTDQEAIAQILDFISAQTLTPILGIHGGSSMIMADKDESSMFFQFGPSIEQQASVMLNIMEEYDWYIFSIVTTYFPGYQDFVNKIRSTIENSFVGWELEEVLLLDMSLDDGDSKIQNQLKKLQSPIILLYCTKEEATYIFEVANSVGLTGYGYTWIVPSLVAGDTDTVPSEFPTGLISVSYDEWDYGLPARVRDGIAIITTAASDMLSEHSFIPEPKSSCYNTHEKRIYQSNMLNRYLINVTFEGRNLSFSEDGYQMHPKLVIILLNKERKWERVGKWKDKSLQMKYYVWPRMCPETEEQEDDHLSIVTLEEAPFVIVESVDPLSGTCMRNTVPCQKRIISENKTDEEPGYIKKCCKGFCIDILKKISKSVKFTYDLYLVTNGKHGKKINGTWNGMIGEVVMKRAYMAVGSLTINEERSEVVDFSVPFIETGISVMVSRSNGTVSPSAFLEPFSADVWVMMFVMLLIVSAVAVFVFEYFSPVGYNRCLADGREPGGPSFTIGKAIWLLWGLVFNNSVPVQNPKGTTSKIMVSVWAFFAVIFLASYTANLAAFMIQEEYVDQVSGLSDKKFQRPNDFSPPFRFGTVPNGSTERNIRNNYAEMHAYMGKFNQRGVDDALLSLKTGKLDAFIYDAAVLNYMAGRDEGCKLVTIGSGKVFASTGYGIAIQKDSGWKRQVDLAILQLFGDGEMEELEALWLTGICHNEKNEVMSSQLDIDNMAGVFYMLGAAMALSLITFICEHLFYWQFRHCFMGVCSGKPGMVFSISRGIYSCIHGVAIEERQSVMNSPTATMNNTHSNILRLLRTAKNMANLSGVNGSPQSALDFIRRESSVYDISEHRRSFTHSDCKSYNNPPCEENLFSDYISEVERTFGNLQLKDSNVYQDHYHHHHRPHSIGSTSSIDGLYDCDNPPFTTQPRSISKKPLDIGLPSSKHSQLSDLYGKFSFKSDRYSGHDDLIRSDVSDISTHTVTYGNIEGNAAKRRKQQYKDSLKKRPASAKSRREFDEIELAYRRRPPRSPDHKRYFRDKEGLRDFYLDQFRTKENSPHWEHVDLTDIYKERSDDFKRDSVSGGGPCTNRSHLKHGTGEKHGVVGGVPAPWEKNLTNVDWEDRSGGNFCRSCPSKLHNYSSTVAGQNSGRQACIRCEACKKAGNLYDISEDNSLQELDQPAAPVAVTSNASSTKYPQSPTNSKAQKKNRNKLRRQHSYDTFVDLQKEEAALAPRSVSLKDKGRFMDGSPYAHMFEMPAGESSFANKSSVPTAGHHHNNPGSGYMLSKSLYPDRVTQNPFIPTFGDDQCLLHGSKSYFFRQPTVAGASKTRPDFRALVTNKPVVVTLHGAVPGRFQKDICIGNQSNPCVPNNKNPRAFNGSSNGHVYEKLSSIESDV

[1] = HEK293, Table 2, read-out: Normalized Potentiation GluN1/GluN2B

SMILES | Normalized Potentiation (GluN1/GluN2A NMDARs; Table 1) | other results
O=C(N/N=C/c1cccc(O)c1O)c1ccc(Br)cc1 [Npam73, (E)-4-bromo-N′-(2,3-dihydroxybenzylidene)benzohydrazide] |  | activation at 50 µM (GluN1/GluN2A NMDARs): 30.7 ± 4.76%; activation at 50 µM (GluN1/GluN2B NMDARs; [1]): -49.9 ± 6.87%
COc1cc([N+](=O)[O-])cc(/C=N/NC(=O)c2ccccc2C)c1O [Npam72, (E)-N′-(2-hydroxy-3-methoxy-5-nitrobenzylidene)-2-methylbenzohydrazide] |  | Selectivity for GluN1/GluN2A versus GluN1/GluN2B NMDARs (GluN1/GluN2A NMDARs; FIG. 2, HEK293 cells expressing GluN1/GluN2A and GluN1/GluN2B): selective for GluN1/GluN2A NMDARs; activation at 100 µM (GluN1/GluN2A NMDARs): 118 ± 18.5%; activation at 100 µM (GluN1/GluN2B NMDARs; [1]): -24.2 ± 4.55%
O=C(N/N=C/c1cccc(O)c1O)c1cc(O)cc(O)c1 [Npam70, (E)-N′-(2,3-dihydroxybenzylidene)-3,5-dihydroxybenzohydrazide] |  | activation at 50 µM (GluN1/GluN2A NMDARs): -24.1 ± 2.47%; activation at 50 µM (GluN1/GluN2B NMDARs; [1]): -45.6 ± 3.67%
O=C(N/N=C/c1cccc(O)c1O)c1ccc(O)cc1 [Npam68, (E)-N′-(2,3-dihydroxybenzylidene)-4-hydroxybenzohydrazide] |  | activation at 50 µM (GluN1/GluN2A NMDARs): 35.1 ± 4.85%; activation at 50 µM (GluN1/GluN2B NMDARs; [1]): -56.6 ± 7.45%
COc1cc(Cl)cc(/C=N/NC(=O)c2ccccc2Br)c1O [Npam75, (E)-2-bromo-N′-(5-chloro-2-hydroxy-3-methoxybenzylidene)benzohydrazide] |  | activation at 100 µM (GluN1/GluN2A NMDARs): 57.2 ± 3.78%; activation at 100 µM (GluN1/GluN2B NMDARs; [1]): -17 ± 2.14%
O=C(N/N=C/c1cccc(O)c1O)c1cccc([N+](=O)[O-])c1 [Npam64, (E)-N′-(2,3-dihydroxybenzylidene)-3-nitrobenzohydrazide] |  | activation at 100 µM (GluN1/GluN2A NMDARs): 28.2 ± 2.47%; activation at 100 µM (GluN1/GluN2B NMDARs; [1]): -54.6 ± 5.87%
Cc1cccc(C(=O)N/N=C/c2cccc(O)c2O)c1 [Npam71, (E)-N′-(2,3-dihydroxybenzylidene)-3-methylbenzohydrazide] |  | activation at 50 µM (GluN1/GluN2A NMDARs): 41.7 ± 6.78%; activation at 50 µM (GluN1/GluN2B NMDARs; [1]): -48.6 ± 4.77%
CCOc1cc(Cl)c(Cl)c(/C=N/NC(=O)Cc2ccccc2)c1O [Npam56, N′-[(1E)-(2,3-dichloro-5-ethoxy-6-hydroxyphenyl)methylidene]-2-phenylacetohydrazide] | 21.48 ± 2.89% | 
CCOc1cc(Cl)c(Cl)c(/C=N/NC(=O)c2ccccc2)c1O [Npam55, (E)-N′-(2,3-dichloro-5-ethoxy-6-hydroxybenzylidene)benzohydrazide] | 32.10 ± 3.02% | 
COc1cc(Br)cc(/C=N/NC(=O)c2ccc(NC(=O)c3ccc(C)cc3)cc2)c1O [Npam25, (E)-N-(4-(2-(5-bromo-2-hydroxy-3-methoxybenzylidene)hydrazinecarbonyl)phenyl)-4-methylbenzamide] | −14.32 ± 2.20% | 
Cc1cc2ccccc2cc1C(=O)N/N=C/c1cccc(O)c1O [Npam65, (E)-N′-(2,3-dihydroxybenzylidene)-3-methyl-2-naphthohydrazide] |  | activation at 50 µM (GluN1/GluN2A NMDARs): 51.8 ± 6.55%; activation at 50 µM (GluN1/GluN2B NMDARs; [1]): -46.9 ± 8.94%
COc1cccc(/C=N/NC(=O)c2ccccc2I)c1O [Npam66, (E)-N′-(2-hydroxy-3-methoxybenzylidene)-2-iodobenzohydrazide] |  | activation at 100 µM (GluN1/GluN2A NMDARs): 45.7 ± 3.87%; activation at 25 µM (GluN1/GluN2B NMDARs; HEK293, Table 2, 25 μM, read-out: Normalized Potentiation GluN1/GluN2B): -20.9 ± 3.69%
CCOc1cc(Br)cc(/C=N/NC(=O)c2ccccc2Cl)c1O [Npam54, N′-[(1E)-(5-bromo-3-ethoxy-2-hydroxyphenyl)methylidene]-2-chlorobenzohydrazide] | 43.41 ± 13.48% | 
COc1cc(Br)c(Br)c(/C=N/NC(=O)c2ccccc2Cl)c1O [Npam45, (E)-2-chloro-N′-(2,3-dibromo-6-hydroxy-5-methoxybenzylidene)benzohydrazide] | 284.50 ± 85.20% | 
CCOc1cc([N+](=O)[O-])cc(/C=N/NC(=O)c2cc(Cl)ccc2O)c1O [Npam24, (E)-5-chloro-N′-(3-ethoxy-2-hydroxy-5-nitrobenzylidene)-2-hydroxybenzohydrazide] | 61.57 ± 8.15% | 
CCOc1cc(Br)cc(/C=N/NC(=O)c2cccc(C)c2C)c1O [Npam15, (E)-N′-(5-bromo-3-ethoxy-2-hydroxybenzylidene)-2,3-dimethylbenzohydrazide] | 89.84 ± 27.86% | 
CCOc1cc(Br)cc(/C=N/NC(=O)c2ccccc2N)c1O [Npam21, (E)-2-amino-N′-(5-bromo-3-ethoxy-2-hydroxybenzylidene)benzohydrazide] | 37.27 ± 4.64% | 
CCOc1cc(Br)cc(/C=N/NC(=O)c2ccncc2)c1O [Npam28, N′-[(1E)-(5-bromo-3-ethoxy-2-hydroxyphenyl)methylidene]pyridine-4-carbohydrazide] | 30.25 ± 2.87% | 
CCOc1cc(Br)cc(/C=N/NC(=O)c2ccc(F)cc2)c1O [Npam22, (E)-N′-(5-bromo-3-ethoxy-2-hydroxybenzylidene)-4-fluorobenzohydrazide] | 59.83 ± 7.55% | 
O=C(N/N=C/c1cc(Cl)cc(Cl)c1O)c1ccccc1Br [Npam26, (E)-2-bromo-N′-(3,5-dichloro-2-hydroxybenzylidene)benzohydrazide] | 175.08 ± 14.42% | 
O=C(N/N=C/c1cccc(O)c1O)c1cccc(Br)c1 [Npam16, (E)-3-bromo-N′-(2,3-dihydroxybenzylidene)benzohydrazide] | 36.90 ± 5.62% | 
CC(C(O)c1ccc(O)cc1)N1CCC(Cc2ccccc2)CC1 (stereo not drawn) [ifenprodril, reference compound] |  | Block of GluN1/GluN2B NMDAR currents (GluN1/GluN2B NMDARs): successfully blocked
CCOc1cc(/C=N/NC(=O)c2ccccc2Br)cc(Br)c1O [Npam27, (E)-2-bromo-N′-(3-bromo-5-ethoxy-4-hydroxybenzylidene)benzohydrazide] | −0.278 ± 5.62% | 
CCOc1cc(Cl)c(Cl)c(/C=N/NC(=O)c2cccc(Br)c2)c1O [Npam32, (E)-3-bromo-N′-(2,3-dichloro-5-ethoxy-6-hydroxybenzylidene)benzohydrazide] | 374.58 ± 19.07% | EC50 (GluN1/GluN2A NMDARs; Table 1, potentiation, read-out: EC50): 250 nM

More lines, main results first:

Normalized Potentiation (GluN1/GluN2A NMDARs; Table 1) | SMILES | other results
292.08 ± 44.70% | CCOc1cc(Br)c(Br)c(/C=N/NC(=O)c2ccccc2C)c1O [Npam04C, (E)-N′-(2,3-dibromo-5-ethoxy-6-hydroxybenzylidene)-2-methylbenzohydrazide] | 
196.21 ± 35.93% | CCOc1cc(Br)cc(/C=N/NC(=O)c2ccccc2C)c1O [Npam82, (E)-N′-(5-bromo-3-ethoxy-2-hydroxybenzylidene)-2-methylbenzohydrazide] | 
15.11 ± 8.78% | CCOc1cccc(/C=N/NC(=O)c2ccccc2Br)c1O [Npam31, 2-bromo-N′-[(1E)-(3-ethoxy-2-hydroxyphenyl)methylidene]benzohydrazide] | 
−12.47 ± 2.06% | Cc1ccccc1C(=O)N/N=C/c1cccc(O)c1O [Npam34, (E)-N′-(2,3-dihydroxybenzylidene)-2-methylbenzohydrazide] | 
120.68 ± 9.61% | COc1cc(Cl)cc(/C=N/NC(=O)c2ccccc2Br)c1O [Npam29, (E)-2-bromo-N′-(5-chloro-2-hydroxy-3-methoxybenzylidene)benzohydrazide] | 
130.54 ± 13.63% | CCOc1cc(Cl)c(Cl)c(/C=N/NC(=O)c2ccccc2C)c1O [Npam17, (E)-N′-(2,3-dichloro-5-ethoxy-6-hydroxybenzylidene)-2-methylbenzohydrazide] | 
43.04 ± 6.55% | COc1cccc(/C=N/NC(=O)c2ccccc2C)c1O [Npam42, (E)-N′-(2-hydroxy-3-methoxybenzylidene)-2-methylbenzohydrazide] | 
